Test results taken from patent publication US8829026B2, “Sulfamoyl benzoic acid heterobicyclic derivatives as TRPM8 antagonists” (RaQualia Pharma Inc., priority 2010, dated 2014).

Molecular target: T1, human TRPM8 (Homo sapiens, UniProt Q7Z2W7)
T1 construct: expressed in transfected cells
Assay: Menthol-induced Ca2+ influx in HEK293 cells stably expressing human TRPM8
Format: cell-based
Settings: 30 microM menthol-induced Ca2+ influx, HEK293 cells stably expressing human TRPM8, 11-point dose-response
Experimental: Measurement of the Menthol-Induced Ca^2+ Influx in HEK293 Cells Stably Expressing Human TRPM8
A cell-based Ca^2+ influx assay using HEK293 cells stably expressing human TRPM8 was used to identify the activity of compounds.
HEK293 cells stably expressing human TRPM8 were grown in T175 flasks at 37° C. in a 5% CO2 humidified incubator to about 80% confluence. Media composition consisted of Dulbecco's Modified Eagle Medium (high glucose), 10% fetal calf serum (FCS), 100 units/ml Penicillin, 100 microg/ml Streptomycin and 600 microg/ml Geneticine. At 24 hours prior to assay, cells were seeded in poly-D-lysine coated 384-well plates (BD FALCON) at a density of 30,000 cells per well in culture medium and grown overnight in 5% CO2 at 37° C. On the assay day, growth media was removed and cells were loaded with 0.5 microM Fluo4-AM (Molecular Probes) and 0.005% Pluronic F-127 dissolved in assay buffer (Hank's balanced salt solution (HBSS), 19.4 mM HEPES pH7.4, 2.5 mM Probenecid) for 1 hour at room temperature. After washing with assay buffer, the cells were preincubated with various concentrations of the compounds for 5 min. The changes in intracellular calcium concentration by addition of 30 microM menthol were monitored by the cell imaging technology by Hamamatsu Photonics's Functional Drug Screening System (FDSS).
The IC50 values for compounds of the present invention were determined from 11-point dose-response studies. Curves were generated using the average of duplicate wells for each data point. Finally, the IC50 values are calculated with the best-fit dose curve determined by XLfit (ID Business Solutions Ltd.).

T1 sequence (Q7Z2W7 whole entry): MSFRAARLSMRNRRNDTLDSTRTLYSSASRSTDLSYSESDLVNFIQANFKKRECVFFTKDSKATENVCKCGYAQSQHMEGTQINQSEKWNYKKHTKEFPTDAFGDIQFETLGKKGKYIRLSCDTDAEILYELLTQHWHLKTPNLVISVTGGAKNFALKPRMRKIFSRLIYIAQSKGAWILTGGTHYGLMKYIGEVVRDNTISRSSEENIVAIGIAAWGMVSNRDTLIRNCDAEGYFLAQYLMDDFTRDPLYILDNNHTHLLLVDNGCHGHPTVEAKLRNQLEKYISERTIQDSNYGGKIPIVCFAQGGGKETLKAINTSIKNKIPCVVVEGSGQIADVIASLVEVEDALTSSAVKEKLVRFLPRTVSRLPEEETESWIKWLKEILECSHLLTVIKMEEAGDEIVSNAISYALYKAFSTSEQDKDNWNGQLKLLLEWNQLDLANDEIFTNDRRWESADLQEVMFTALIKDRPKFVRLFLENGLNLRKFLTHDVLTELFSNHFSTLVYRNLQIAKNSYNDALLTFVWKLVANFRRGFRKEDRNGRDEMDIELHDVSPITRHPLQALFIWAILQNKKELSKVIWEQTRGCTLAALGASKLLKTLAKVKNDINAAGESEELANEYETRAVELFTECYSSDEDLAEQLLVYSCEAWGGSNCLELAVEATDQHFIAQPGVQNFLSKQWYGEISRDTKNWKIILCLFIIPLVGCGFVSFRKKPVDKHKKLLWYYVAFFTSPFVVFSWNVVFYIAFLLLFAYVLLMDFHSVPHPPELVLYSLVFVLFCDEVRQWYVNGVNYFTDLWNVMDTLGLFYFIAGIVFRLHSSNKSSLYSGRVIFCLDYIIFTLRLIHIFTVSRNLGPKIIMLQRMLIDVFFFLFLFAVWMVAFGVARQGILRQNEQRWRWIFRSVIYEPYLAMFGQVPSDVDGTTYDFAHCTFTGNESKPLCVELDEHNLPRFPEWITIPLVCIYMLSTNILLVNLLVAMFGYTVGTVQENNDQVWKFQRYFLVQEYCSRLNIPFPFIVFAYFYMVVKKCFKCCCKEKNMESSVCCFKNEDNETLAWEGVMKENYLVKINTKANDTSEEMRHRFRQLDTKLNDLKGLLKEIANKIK

Cc1cc(C(=O)O)ccc1S(=O)(=O)N(Cc1ccc2c(cnn2C)c1)c1ncc(C(F)(F)F)cc1Cl [Example 26, 4-(N-(3-Chloro-5-(trifluoromethyl)pyridin-2-yl)-N-((1-methyl-1H-indazol-5-yl)methyl)sulfamoyl)-3-methylbenzoic acid]
IC50: < 1 µM

CCc1cc(C(=O)O)ccc1S(=O)(=O)N(Cc1ccc2c(cnn2C)c1)c1ncc(C(F)(F)F)cc1Cl [Example 4, 4-(N-(3-Chloro-5-(trifluoromethyl)pyridin-2-yl)-N-((1-methyl-1H-indazol-5-yl)methyl)sulfamoyl)-3-ethylbenzoic acid]
IC50: < 1 µM

Cc1cc(C(=O)O)ccc1S(=O)(=O)N(Cc1ccc2c(cnn2C2CC2)c1)c1ncc(C(F)(F)F)cc1Cl [Example 33, 4-(N-(3-Chloro-5-(trifluoromethyl)pyridin-2-yl)-N-((1-cyclopropyl-1H-indazol-5-yl)methyl)sulfamoyl)-3-methylbenzoic acid]
IC50: < 1 µM

Cn1ccc2cc(CN(c3ncc(Cl)cc3Cl)S(=O)(=O)c3ccc(C(=O)O)cc3)ccc21 [Example 7, 4-(N-(3,5-Dichloropyridin-2-yl)-N-((1-methyl-1H-indol-5-yl)methyl)sulfamoyl)benzoic acid]
IC50: < 1 µM

Cn1ncc2cc(CN(c3ncc(Cl)cc3Cl)S(=O)(=O)c3ccc(C(=O)O)cc3Cl)ccc21 [Example 24, 3-Chloro-4-(N-(3,5-dichloropyridin-2-yl)-N-((1-methyl-1H-indazol-5-yl)methyl)sulfamoyl)benzoic acid]
IC50: < 1 µM

O=C(O)c1ccc(S(=O)(=O)N(Cc2ccc3c(cnn3C3CC3)c2)c2ncc(Cl)cc2Cl)cc1 [Example 29, 4-(N-((1-Cyclopropyl-1H-indazol-5-yl)methyl)-N-(3,5-dichloropyridin-2-yl)sulfamoyl)benzoic acid]
IC50: < 1 µM
